Results: US8933075B2, “Compounds useful as antiviral agents, compositions, and methods of use” (priority 2010, dated 2015)

Experiments:
[1] = tested on: pseudoHIV particles; test: HIV pseudovirus assay in X4 cells (luciferase); format: cell-based, HIV-1; settings: Human immunodeficiency virus 1, read-out: HIV EC50
Description: A plasmid coding the HIV-1 genome, deleting the envelope protein gene and with a luciferase gene inserted, and a plasmid coding the envelope protein gene were cotransfected into 293T cells. After 48 hr, the supernatant containing pseudoHlV particles was collected for transducing assay. In 96 well plates, X4 cells were plated and incubated till confluent. The pseudoHlV particles were incubated with various concentrations of inhibitor compounds for one hour in room temperature. The particles were then used for tranducing X4 cells. The transduced X4 cells were lysed after 48 hr and the luciferase activity was measured in a luminometer.

[2] = tested on: A/Udorn/72 (H3N2) virus; test: Plaque assay in MDCK cells: EC50 by reduction of plaque number; format: cell-based, influenza virus; settings: MDCK
[3] = tested on: influenza viruses that have HA subtype H3; settings: cited from earlier work
[4] = tested on: influenza viruses that have HA subtypes H1 and H2; settings: cited from earlier work
[5] = tested on: H1 and H2 viruses; settings: cited from earlier work
[6] = tested on: H3 viruses; settings: cited from earlier work
[7] = tested on: influenza virus; settings: cited from earlier work

| Molecule | EC50 [1] [nM] | EC50 [2] [nM] | other results |
| --- | --- | --- | --- |
| O=C1/C(=C/c2oc(-c3ccc(F)cc3)cc2CCCO)SC(=S)N1C1C2CC3CC(C2)CC1C3 (centres unmarked) [Compound 103] | < 100 | < 100 | – |
| COc1cc(OC)cc(-c2cc(CCCCO)c(/C=C3\SC(=S)N(C4C5CC6CC(C5)CC4C6)C3=O)o2)c1 (centres unmarked) [Compound 114] | < 100 | < 100 | – |
| COc1cc(O)cc(-c2cc(CCCO)c(/C=C3\SC(=S)N(C4CC5CCC4C5)C3=O)o2)c1 (centres unmarked) [Compound 101] | < 100 | < 100 | – |
| COc1cc(O)cc(-c2cc(CCCO)c(/C=C3\SC(=S)N(C4C5CC6CC(C5)CC4C6)C3=O)o2)c1 (centres unmarked) [Compound 102] | < 100 | < 100 | – |
| COc1cc(O)cc(-c2cc(CCCNC(=N)N)c(/C=C3\SC(=S)N(C4CC5CCC4C5)C3=O)o2)c1 (centres unmarked) [Compound 194] | < 100 | < 100 | – |
| COc1cc(O)cc(-c2cc(CCCN)c(/C=C3\SC(=S)N(C4C5CC6CC(C5)CC4C6)C3=O)o2)c1 (centres unmarked) [Compound 123] | < 100 | < 100 | – |
| COc1cc(OC)cc(-c2cc(CCCNC(=O)[C@H](Cc3ccccc3)NC(=O)OC(C)(C)C)c(/C=C3\SC(=S)N(C4CC5CCC4C5)C3=O)o2)c1 (some centres unmarked) [Compound 157] | < 100 | < 100 | – |
| COc1cc(OCC(=O)N2CCC[C@H]2C(=O)O)cc(-c2ccc(/C=C3\SC(=S)N(C4CC5CCC4C5)C3=O)o2)c1 (some centres unmarked) [Compound 84] | < 100 | < 100 | – |
| COc1ccc(-c2ccc(/C=C3\SC(=S)N(C4C5CC6CC(C5)CC4C6)C3=O)o2)cc1OCC(=O)O (centres unmarked) [Compound 33] | < 100 | < 100 | – |
| CCOC(=O)COc1cc(-c2ccc(/C=C3\SC(=S)N(C4CC5CCC4C5)C3=O)o2)ccc1OC (centres unmarked) [Compound 22] | < 100 | < 100 | – |
| C[C@@H]1CCC[C@@H]2C[C@@H](NC(=O)c3cc(Cl)c(N)cc3O)CCN21 [BMY-27709] | – | – | activity against H3 [3]: not H3; EC50 [4]: 6 to 8 µM |
| COc1cc(O)cc(-c2cc(CCCN)c(/C=C3\SC(=S)N(C4CC5CCC4C5)C3=O)o2)c1 (centres unmarked) [Compound 122] | < 100 | < 100 | – |
| COc1cc(O)cc(-c2cc(CCCC(C(=O)O)C(=O)O)c(/C=C3\SC(=S)N(C4CC5CCC4C5)C3=O)o2)c1 (centres unmarked) [Compound 137] | < 100 | – | – |
| CCOC(=O)COc1cc(-c2ccc(/C=C3\SC(=S)N(C4C5CC6CC(C5)CC4C6)C3=O)o2)cc(OC)c1OC (centres unmarked) [Compound 30] | < 100 | < 100 | – |
| COc1cc(O)cc(-c2ccc(/C=C3\SC(=S)N(C4CC5CCC4C5)C3=O)o2)c1 (centres unmarked) [Compound 17] | < 100 | < 100 | – |
| COc1cc(OC)cc(-c2cc(CCCn3nnc(CO)c3CO)c(/C=C3\SC(=S)N(C4C5CC6CC(C5)CC4C6)C3=O)o2)c1 (centres unmarked) [Compound 201, (Z)-3-(adamantan-2-yl)-5-((3-(3-(4′,5′-bis(hydroxymethyl)-1H-1′,2′,3′-triazol-1-yl)propyl)-5-(3′,5′-dimetho-xyphenyl)furan-2-yl)methylene)-2-thioxothiazolidin-4-one] | < 100 | < 100 | – |
| Stachyflin | – | – | EC50 [5]: μM range; activity against H3 viruses [6]: not H3 |
| COc1cc(OC)cc(-c2cc(CCCOC(=O)[C@H](CC(N)=O)NC(=O)OC(C)(C)C)c(/C=C3\SC(=S)N(C4CC5CCC4C5)C3=O)o2)c1 (some centres unmarked) [Compound 138] | < 100 | < 100 | – |
| COc1cc(OC)cc(-c2cc(CCC(=O)O)c(/C=C3\SC(=S)N(C4C5CC6CC(C5)CC4C6)C3=O)o2)c1 (centres unmarked) [Compound 129] | < 100 | < 100 | – |
| COc1cc(OC)cc(-c2cc(CCCOC(=O)[C@@H](N)Cc3ccc(O)cc3)c(/C=C3\SC(=S)N(C4CC5CCC4C5)C3=O)o2)c1 (some centres unmarked) [Compound 151] | < 100 | < 100 | – |
| COC(=O)c1cc(-c2ccc(/C=C3\SC(=S)N(C4C5CC6CC(C5)CC4C6)C3=O)o2)cc(OC)c1OC (centres unmarked) [Compound 32] | < 100 | < 100 | – |
| COc1cc(OC)cc(-c2cc(CCCn3nnc(CO)c3CO)c(/C=C3\SC(=S)N(C4CC5CCC4C5)C3=O)o2)c1 (centres unmarked) [Compound 200, (Z)-3-(bicyclo[2.2.1]heptan-2-yl)-5-((3-(3-(4′,5′-bis(hydroxymethyl)-1H-1′,2′,3′-triazol-1-yl)propyl)-5-(3′,5′-dimethoxyphenyl)furan-2-yl)methylene)-2-thioxothiazolidin-4-one] | < 100 | < 100 | – |
| COc1cc(OC)cc(-c2cc(CCCO)c(/C=C3\SC(=S)N(C4C5CC6CC(C5)CC4C6)C3=O)o2)c1 (centres unmarked) [Compound 95] | < 100 | < 100 | – |
| NCCCc1cc(-c2ccc(Cl)cc2)oc1/C=C1\SC(=S)N(C2C3CC4CC(C3)CC2C4)C1=O (centres unmarked) [Compound 125] | < 100 | < 100 | – |
| O=C1/C(=C/c2oc(-c3ccc(F)cc3)cc2CCCO)SC(=S)N1C1CC2CCC1C2 (centres unmarked) [Compound 104] | < 100 | < 100 | – |

| Molecule | EC50 [1] [nM] | EC50 [2] [nM] | other results |
| --- | --- | --- | --- |
| O=C1/C(=C/c2oc(-c3ccc(Cl)cc3)cc2CCCO)SC(=S)N1C1CC2CCC1C2 (centres unmarked) [Compound 99] | < 100 | < 100 | – |
| CCOC(=O)COc1cc(-c2ccc(/C=C3\SC(=S)N(C4C5CC6CC(C5)CC4C6)C3=O)o2)ccc1OC (centres unmarked) [Compound 21] | < 100 | < 100 | – |
| CCOC(=O)COc1cc(-c2ccc(/C=C3\SC(=S)N(C4CC5CCC4C5)C3=O)o2)cc(OC)c1OC (centres unmarked) [Compound 29] | < 100 | < 100 | – |
| COc1cc(OC)cc(-c2cc(/C=C/C(=O)O)c(/C=C3\SC(=S)N(C4CC5CCC4C5)C3=O)o2)c1 (centres unmarked) [Compound 130] | < 100 | < 100 | – |
| COc1cc(OC)cc(-c2cc(CCCNC(=O)[C@@H](N)Cc3ccc(O)cc3)c(/C=C3\SC(=S)N(C4CC5CCC4C5)C3=O)o2)c1 (some centres unmarked) [Compound 167] | < 100 | < 100 | – |
| COc1cc(OC)cc(-c2cc(CCCNC(=N)N)c(/C=C3\SC(=S)N(C4CC5CCC4C5)C3=O)o2)c1 (centres unmarked) [Compound 195] | < 100 | < 100 | – |
| COc1cc(O)cc(-c2cc(CCCNC(=O)[C@@H](N)CC(N)=O)c(/C=C3\SC(=S)N(C4CC5CCC4C5)C3=O)o2)c1 (some centres unmarked) [Compound 174] | < 100 | < 100 | – |
| COc1cc(OC)cc(-c2cc(CCCNC(=O)[C@@H](N)CC(N)=O)c(/C=C3\SC(=S)N(C4CC5CCC4C5)C3=O)o2)c1 (some centres unmarked) [Compound 168] | < 100 | < 100 | – |
| O=C1/C(=C/c2oc(-c3ccc(Cl)cc3)cc2CCCN2CCNCC2)SC(=S)N1C1CC2CCC1C2 (centres unmarked) [Compound 186] | < 100 | < 100 | – |
| COc1cc(OC)cc(-c2cc(CCCN)c(/C=C3\SC(=S)N(C4CC5CCC4C5)C3=O)o2)c1 (centres unmarked) [Compound 120] | < 100 | < 100 | – |
| COc1cc(OCC(=O)O)cc(-c2ccc(/C=C3\SC(=S)N(C4CC5CCC4C5)C3=O)o2)c1 (centres unmarked) [Compound 37] | < 100 | < 100 | – |
| NCCCc1cc(-c2ccc(Cl)cc2)oc1/C=C1\SC(=S)N(C2CC3CCC2C3)C1=O (centres unmarked) [Compound 124] | < 100 | < 100 | – |
| OC(CCN1CCCCC1)(c1ccccc1)C1C2CC3C(C2)C31 (centres unmarked) [Triperiden] | – | – | concentration inhibiting influenza virus replication [7]: 20 µg/mL |
| COc1cc(OCC(=O)N[C@@H](Cc2ccccc2)C(=O)O)cc(-c2ccc(/C=C3\SC(=S)N(C4CC5CCC4C5)C3=O)o2)c1 (some centres unmarked) [Compound 83] | < 100 | < 100 | – |
| COc1cc(OC)cc(-c2ccc(/C=C3\SC(=S)N(C4C5CC6CC(C5)CC4C6)C3=O)o2)c1 (centres unmarked) [Compound 20] | < 100 | < 100 | – |
| COc1ccc(-c2ccc(/C=C3\SC(=S)N(C4CC5CCC4C5)C3=O)o2)cc1C(=O)N[C@@H](Cc1ccc(O)cc1)C(=O)O (some centres unmarked) [Compound 86] | < 100 | < 100 | – |
| COc1cc(OC)cc(-c2cc(CCCNC(=O)[C@H](CC(N)=O)NC(=O)OC(C)(C)C)c(/C=C3\SC(=S)N(C4CC5CCC4C5)C3=O)o2)c1 (some centres unmarked) [Compound 156] | < 100 | < 100 | – |
| COC(=O)c1cc(-c2ccc(/C=C3\SC(=S)N(C4CC5CCC4C5)C3=O)o2)cc(OC)c1OC (centres unmarked) [Compound 31] | < 100 | < 100 | – |
| O=C1/C(=C/c2oc(-c3ccccc3)cc2CO)SC(=S)N1C1C2CC3CC(C2)CC1C3 (centres unmarked) [Compound 92] | 100 to 250 | < 100 | – |
| COc1cc(OC)cc(-c2cc(CCCCO)c(/C=C3\SC(=S)N(C4CC5CCC4C5)C3=O)o2)c1 (centres unmarked) [Compound 113] | < 100 | < 100 | – |
| COc1cc(OC)cc(-c2cc(CCCNC(=O)[C@@H](N)Cc3ccccc3)c(/C=C3\SC(=S)N(C4CC5CCC4C5)C3=O)o2)c1 (some centres unmarked) [Compound 171] | < 100 | < 100 | – |
| COc1cc(OC)cc(-c2cc(CCCN)c(/C=C3\SC(=S)N(C4C5CC6CC(C5)CC4C6)C3=O)o2)c1 (centres unmarked) [Compound 121] | < 100 | < 100 | – |
| COc1ccc(-c2ccc(/C=C3\SC(=S)N(C4C5CC6CC(C5)CC4C6)C3=O)o2)cc1O (centres unmarked) [Compound 23] | < 100 | < 100 | – |
| COc1cc(OC)cc(-c2cc(CCCNC(=O)[C@@H](N)c3ccccc3)c(/C=C3\SC(=S)N(C4CC5CCC4C5)C3=O)o2)c1 (some centres unmarked) [Compound 170] | < 100 | < 100 | – |
| COc1cc(OC)cc(-c2ccc(/C=C3\SC(=S)N(C4CC5CCC4C5)C3=O)o2)c1 (centres unmarked) [Compound 19] | < 100 | < 100 | – |
